Consider 6 compounds from patent US20200347264A1, “COMPOSITIONS FOR CONTAINERS AND OTHER ARTICLES AND METHODS OF USING SAME” (SWIMC LLC, priority 2012, published 2020).

The first assay deals with MCF-7, clone WS8, cells. In words: MCF-7 cell proliferation assay of estrogenic activity. In kind it is cell-based, human. The settings on record: logarithmic (base 10) Relative Proliferative Effect vs 17-beta estradiol in the MCF-7 assay; values called expected or measured. The source says: The MCF-7 assay uses MCF-7, clone WS8, cells to measure whether and to what extent a substance induces cell proliferation via estrogen receptor (ER)-mediated pathways. The method is described in “Test Method Nomination: MCF-7 Cell Proliferation Assay of Estrogenic Activity” submitted for validation by CertiChem, Inc. to the National Toxicology Program Interagency Center for the Evaluation of Alternative Toxicological Methods (NICEATM) on Jan. 19, 2006 (available online at http://iccvam.niehs.nih.gov/methods/endocrine/endodocs/SubmDoc.pdf).
A brief summary of the method of the aforementioned MCF-7 assay is provided below. MCF-7, clone WS8, cells are maintained at 37° C. in RMPI (Roswell Park Memorial Institute medium) containing Phenol Red (e.g., GIBCO Catalog Number 11875119) and supplemented with the indicated additives for routine culture. An aliquot of cells maintained at 37° C. are grown for 2 days in phenol-free media containing 5% charcoal stripped fetal bovine serum in a 25 cm^2 tissue culture flask. Using a robotic dispenser such as an epMotion 5070 unit, MCF-7 cells are then seeded at 400 cells per well in 0.2 ml of hormone-free culture medium in Corning 96-well plates. The cells are adapted for 3 days in the hormone-free culture medium prior to adding the test chemical to be assayed for activity. The media containing the test chemical is replaced daily for 6 days. At the end of the 7-day exposure to the test chemical, the media is removed, the wells are washed once with 0.2 ml of HBSS (Hanks' Balanced Salt Solution), and then assayed to quantify amounts of DNA per well using a micro-plate modification of the Burton diphenylamine (DPA) assay, which is used to calculate the level of cell proliferation.
RPE is the ratio between the EC50 of the test chemical and the EC50 of the control substance 17-beta estradiol times 100, where EC50 is “effective concentration 50^0/” or half-maximum stimulation concentration for cell proliferation measured as total DNA in the MCF-7 assay.
Regarding `CC(C(=O)O)(c1ccc(O)cc1)c1ccc(O)cc1`, the “Log RPE” value is reported as “less than −4”. Same read-out and setting: to `CC(C)(c1cc(Br)c(O)c(Br)c1)c1cc(Br)c(O)c(Br)c1` belongs −3.

For the compound `O=S(=O)(c1ccc(O)cc1)c1ccc(O)cc1` [Bisphenol S], the “Log RPE” value is −2.

As for `CC(C)(C)c1cc(O)c(C(C)(C)C)cc1O`, the “Log RPE” value is reported as “less than −4”.

As for `C[C@]12CC[C@@H]3c4ccc(O)cc4CC[C@H]3[C@@H]1CC[C@@H]2O` [17β-estradiol], the “Log RPE” value turned out to be 2.00.

A further assay has as its target T1, human estrogen receptor (Homo sapiens, UniProt P03372).
T1 sequence (P03372 1-595): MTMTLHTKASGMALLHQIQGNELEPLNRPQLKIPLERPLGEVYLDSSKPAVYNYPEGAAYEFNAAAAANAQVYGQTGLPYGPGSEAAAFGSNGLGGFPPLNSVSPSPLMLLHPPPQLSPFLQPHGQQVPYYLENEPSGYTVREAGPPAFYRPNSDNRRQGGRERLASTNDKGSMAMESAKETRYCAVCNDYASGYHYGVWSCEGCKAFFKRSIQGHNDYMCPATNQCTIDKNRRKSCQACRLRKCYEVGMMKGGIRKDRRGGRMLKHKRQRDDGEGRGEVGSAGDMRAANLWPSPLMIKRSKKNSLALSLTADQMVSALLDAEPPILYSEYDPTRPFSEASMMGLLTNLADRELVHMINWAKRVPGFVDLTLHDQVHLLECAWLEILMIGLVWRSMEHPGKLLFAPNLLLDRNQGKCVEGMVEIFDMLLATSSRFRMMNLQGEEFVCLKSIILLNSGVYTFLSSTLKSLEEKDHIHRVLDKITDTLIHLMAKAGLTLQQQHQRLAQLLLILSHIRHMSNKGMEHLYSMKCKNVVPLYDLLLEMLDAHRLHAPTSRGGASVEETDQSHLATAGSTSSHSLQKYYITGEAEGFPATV
Nature of the assay: in vitro assay of estrogenic activity correlated to the MCF-7 assay. The format is cell-based. The settings on record: suitable in vitro assay correlated to MCF-7 assay; assay not named for hydroquinone.
`CC(C)(C)c1cc(O)c(C(C)(C)C)cc1O`: the estrogenic activity entry was “does not exhibit appreciable estrogenic activity”. Still for that read-out and setting: to `Oc1ccc(O)cc1` [hydroquinone] belongs “appreciably non-estrogenic”.
